The test system of test [1] is HCMV recombinant mutant virus whose genome contains the prokaryotic beta-glucuronidase gene. In words: microbe, parasite or virus in culture. Format: cell-based, human cytomegalovirus. The note with it: Human betaherpesvirus 5, Fibroblast. The procedure, abridged:
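Antiviral IC50 estimated from reduced reporter activity across compound amounts: lysates prepared 96 h after infection were tested with p-nitrophenyl- or methylumbelliferyl-glucuronide. Cells were human foreskin fibroblasts, infected alongside inhibitor with HCMV (e.g. RV145) expressing viral promoter-driven beta-glucuronidase.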

Another test has as its system HSV- I. In words: HSV antiviral (ELISA) assay. The conditions noted are these: read-out: IC50 (ug/ml) HSV. Format: cell-based. As for the experimental part: Vero cells (ATCC #CCL-81) are plated on 96-well tissue culture plates at 3.5x10^4 cells per 100µl tissue culture DMEM (Dulbecco's modified Eagle media) supplemented with 2% fetal bovine serum (FBS) in each well. After overnight incubation @ 37°C (in 5% CO2) and 30 minutes prior to infection with HSV- I (multiplicity of infection equal to 0.006), cells are either untreated, or treated with test compound (multiple concentrations) or reference standard drug control. After approximately 24 hours post-infection incubation @ 37°C (in 5% CO2), cells are fixed for ELISA assay. The primary antibody is murine anti-HSV glycoprotein D monoclonal primary antibody and the secondary antibody is goat anti-mouse IgG linked to β-galactosidase. Thus the extent of viral replication is determined by assessing β-galactosidase activity by quantifying the generation of the 4-methyl umbelliferone fluorescent cleavage product after addition of the methyl umbelliferyl-β-D-galactoside (Sigma #M1633) substrate on a microfluorimeter (365nm for excitation and 450nm for emission). Antiviral activity (IC50) of the test compound is determined by comparing the flourescence obtained in absence of compound to that obtained in the presence of compound.
Background: In an ELISA, binding on a coated surface is turned into a signal by an enzyme label.

The next test has as its system VZV strain Ellen. In words: VZV antiviral (ELISA) assay. Type of test: cell-based. The procedure, abridged: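 HFF cells infected with VZV Ellen at multiplicity below 0.1 overnight, then mixed infected/uninfected cells seeded with compound in DMEM/2% FBS and incubated three days at 37°C, 5% CO2.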
[2] abbreviates: read-out: IC50 ug/ml HCMV, HCMV, human foreskin fibroblasts.
Setting [3] is: Human alphaherpesvirus 3, HFF, read-out: % inhibition 10 ug/ml VZV.
The mark [4] stands for this setting: Human alphaherpesvirus 3, HFF, read-out: IC50 (ug/ml) VZV, VZV strain Ellen, HFF cells, ELISA.
[5] abbreviates: Human alphaherpesvirus 3, HFF, read-out: IC50 (ug/ml) VZV.

Converted amounts (≈) assume the structure as drawn. Like-named read-outs stand apart in the source and are kept apart here.

As to `COc1cc(OC)c(NC(=S)Nc2ccc(NC(=O)c3cccc(NS(C)(=O)=O)c3)cc2)cc1Cl` [Example 137, N-{4-[3-(5-Chloro-2,4-dimethoxy-phenyl)-thioureido]-phenyl}-3-methane-sulfony-amino-benzamide], the IC50 is 10 µg/mL (≈ 18.7 µM) in test [1] (setting [2]), 10 µg/mL (≈ 18.7 µM) with HSV- I (Vero) and greater than 15 µg/mL with VZV strain Ellen (setting [4]). Besides, in the test on VZV strain Ellen (setting [3]), the inhibition at 10 µg/mL was 72%.
As for `COc1cc(OC)c(NC(=S)Nc2ccc(NC(=O)c3ccccc3C(F)(F)F)cc2)cc1Cl` [Example 138, N-{4-[3-(5-Chloro-2,4-dimethoxy-phenyl)-thioureido]-phenyl}-2-trifluoro-methyl-benzamide], the IC50 is 8 µg/mL (≈ 15.7 µM) in test [1] (setting [2]); 1 µg/mL (≈ 1.96 µM) in the test with HSV- I (HSV- I, Vero cells, ELISA); greater than 10 µg/mL with VZV strain Ellen (setting [5]). For the same compound, the inhibition at 10 µg/mL in the test with VZV strain Ellen (setting [3]) came out at 57%.
Taken in the same sequence, the figures for `COc1cc(OC)c(NC(=S)Nc2ccc(NC(=O)c3ccccc3O)cc2)cc1Cl` [Example 139, N-{4-[3-(5-Chloro-2,4-dimethoxy-phenyl)-thioureido]-phenyl}-2-hydroxy-benzamide] were 6 µg/mL (≈ 13.1 µM), 6 µg/mL (≈ 13.1 µM), 4 µg/mL (≈ 8.73 µM) and 95%.
For the compound `COc1cc(OC)c(NC(=S)Nc2ccc(NC(=O)c3c(F)cccc3F)cc2)cc1Cl` [Example 140, N-{4-[3-(5-Chloro-2,4-dimethoxy-phenyl)-thioureido]-phenyl}-2,6-difluoro-benzamide], the IC50 in test [1] (setting [2]) was 4 µg/mL (≈ 8.37 µM); in the test on HSV- I (HSV- I, Vero cells, ELISA) it was 0.15 µg/mL (≈ 0.314 µM); in the test on VZV strain Ellen (setting [5]), 10 µg/mL (≈ 20.9 µM). The inhibition at 10 µg/mL in the test on VZV strain Ellen (setting [3]) is 65%.
Taken in the same sequence, the figures for `COc1cc(OC)c(NC(=S)Nc2ccc(NC(=O)c3ccccc3Cl)cc2)cc1Cl` [Example 141, 2-Chloro-N-{4-[3-(5-chloro-2,4-dimethoxy-phenyl)-thioureido]-phenyl}-benzamide] were 6 µg/mL (≈ 12.6 µM), 0.25 µg/mL (≈ 0.525 µM), greater than 10 µg/mL and 40%.
`COc1cc(OC)c(NC(=S)Nc2ccc(NC(=O)c3ccccc3Br)cc2)cc1Cl` [Example 142, 2-Bromo-N-{4-[3-(5-chloro-2,4-dimethoxy-phenyl)-thioureido]-phenyl}-benzamide]: the IC50 in test [1] (read-out: IC50 ug/ml HCMV) was 10 µg/mL (≈ 19.2 µM); in the test on HSV- I (HSV- I, Vero cells, ELISA), 0.4 µg/mL (≈ 0.768 µM); in the test on VZV strain Ellen (Human alphaherpesvirus 3, VZV strain Ellen, HFF cells, ELISA, read-out: IC50 (ug/ml) VZV) it was greater than 15 µg/mL. In addition, the inhibition at 10 µg/mL with VZV strain Ellen (Human alphaherpesvirus 3, read-out: % inhibition 10 ug/ml VZV, 10 ug/ml, VZV strain Ellen, HFF cells, ELISA) stood at 51%.
`COc1cc(OC)c(NC(=S)Nc2ccc(NC(=O)c3ccccc3[N+](=O)[O-])cc2)cc1Cl` [Example 143, N-{4-[3-(5-Chloro-2,4-dimethoxy-phenyl)-thioureido]-phenyl}-2-nitro-benzamide]: the IC50 in test [1] (setting [2]) is greater than 10 µg/mL; in the test on HSV- I (HSV- I, Vero cells, ELISA) it was 1 µg/mL (≈ 2.05 µM); with VZV strain Ellen (setting [5]), greater than 15 µg/mL. In addition, the inhibition at 10 µg/mL in the test with VZV strain Ellen (setting [3]) came out at 68%.
In the case of `COc1cc(OC)c(NC(=S)Nc2ccc(NC(=O)c3ccc4ccccc4c3)cc2)cc1Cl` [Example 156, Naphthalene-2-carboxylic acid {4-[3-(5-chloro-2,4-dimethoxy-phenyl)-thioureido]-phenyl}-amide], the IC50 in test [1] (setting [2]) is 10 µg/mL (≈ 20.3 µM); with HSV- I (HSV- I, Vero cells, ELISA), 2 µg/mL (≈ 4.07 µM); with VZV strain Ellen (setting [5]) it was greater than 10 µg/mL. Also, the inhibition at 10 µg/mL in the test with VZV strain Ellen (setting [3]) was 17%.
Taken in the same sequence, the figures for `COc1cc(OC)c(NC(=S)Nc2ccc(NC(=O)c3cccc4ccccc34)cc2)cc1Cl` [Example 157, Naphthalene-1-carboxylic acid {4-[3-(5-chloro-2,4-dimethoxy-phenyl)-thioureido]-phenyl}-amide] were 8 µg/mL (≈ 16.3 µM), 0.9 µg/mL (≈ 1.83 µM), greater than 10 µg/mL and 32%.
In the case of `CCOC(=O)Nc1cccc(C(=O)Nc2ccc(NC(=S)Nc3cc(Cl)c(OC)cc3OC)cc2)c1` [Example 180, (3-{4-[3-(5-Chloro-2,4-dimethoxy-phenyl)-thioureido]-phenylcarbamoyl}-phenyl)-carbamic acid ethyl ester], the values for the IC50 (in test [1] (setting [2]); in the test on HSV- I (Vero); in the test with VZV strain Ellen (setting [4])) were 1.5 µg/mL (≈ 2.84 µM), 1.3 µg/mL (≈ 2.46 µM) and greater than 10 µg/mL, respectively. In the test with VZV strain Ellen (setting [3]), the inhibition at 10 µg/mL came out at 36%.
For the compound `COc1cc(OC)c(NC(=S)Nc2ccc(NC(=O)c3ccccc3N)cc2)cc1Cl` [Example 181, 2-Amino-N-{4-[3-(5-chloro-2,4-dimethoxy-phenyl)-thioureido]-phenyl}-benzamide], the IC50 in test [1] (setting [2]) is greater than 10 µg/mL; in the test with HSV- I (HSV- I, Vero cells, ELISA) it was 1.5 µg/mL (≈ 3.28 µM); in the test with VZV strain Ellen (setting [5]), greater than 10 µg/mL. Also, the inhibition at 10 µg/mL in the test on VZV strain Ellen (setting [3]) was determined as 60%.
As to `COc1cc(OC)c(NC(=S)Nc2ccc(NC(=O)c3ccccc3-c3ccccc3)cc2)cc1Cl` [Example 182, Biphenyl-2-carboxylic acid {4-[3-(5-chloro-2,4-dimethoxy-phenyl)-thioureido]-phenyl}-amide], the IC50 in test [1] (setting [2]) was 10 µg/mL (≈ 19.3 µM); in the test on HSV- I (Vero) it was 10 µg/mL (≈ 19.3 µM); in the test on VZV strain Ellen (setting [4]), greater than 10 µg/mL. Besides, the inhibition at 10 µg/mL in the test with VZV strain Ellen (setting [3]) was determined as 32%.
For the compound `COc1cc(OC)c(NC(=S)Nc2ccc(NC(=O)c3ccccc3C(=O)O)cc2)cc1Cl` [Example 184, N-{4-[3-(5-Chloro-2,4-dimethoxy-phenyl)-thioureido]-phenyl}-phthalamic acid], the IC50 in test [1] (setting [2]) was greater than 50 µg/mL; in the test with HSV- I (Vero), greater than 50 µg/mL; in the test on VZV strain Ellen (setting [4]) it was greater than 10 µg/mL.
Take `COc1cc(OC)c(NC(=S)Nc2ccc(NC(=O)c3ccccc3CO)cc2)cc1Cl` [Example 185, N-{4-[3-(5-Chloro-2,4-dimethoxy-phenyl)-thioureido]-phenyl}-2-hydroxy-methyl-benzamide]: the IC50 in test [1] (setting [2]) is 10 µg/mL (≈ 21.2 µM); with HSV- I (HSV- I, Vero cells, ELISA) it was 3 µg/mL (≈ 6.36 µM); with VZV strain Ellen (setting [5]), greater than 10 µg/mL. Also, the inhibition at 10 µg/mL in the test with VZV strain Ellen (setting [3]) is 32%.
Taken in the same sequence, the figures for `COc1cc(OC)c(NC(=S)Nc2ccc(NC(=O)c3cccc(F)c3F)cc2)cc1Cl` [Example 186, N-{4-[3-(5-Chloro-2,4-dimethoxy-phenyl)-thioureido]-phenyl}-2,3-difluoro-benzamide] were greater than 10 µg/mL, 0.2 µg/mL (≈ 0.418 µM), greater than 10 µg/mL and 52%.
In the case of `COc1cc(OC)c(NC(=S)Nc2ccc(NC(=O)c3cc(F)ccc3F)cc2)cc1Cl` [Example 187, N-{4-[3-(5-Chloro-2,4-dimethoxy-phenyl)-thioureido]-phenyl}-2,5-difluoro-benzamide], the IC50 is greater than 10 µg/mL in test [1] (setting [2]); 0.2 µg/mL (≈ 0.418 µM) in the test with HSV- I (HSV- I, Vero cells, ELISA); greater than 10 µg/mL in the test with VZV strain Ellen (setting [5]). For the same compound, the inhibition at 10 µg/mL in the test with VZV strain Ellen (setting [3]) stood at 53%.
Regarding `COc1cc(OC)c(NC(=S)Nc2ccc(NC(=O)c3ccc(F)cc3F)cc2)cc1Cl` [Example 188, N-{4-[3-(5-Chloro-2,4-dimethoxy-phenyl)-thioureido]-phenyl}-2,4-difluoro-benzamide], the IC50 was greater than 10 µg/mL in test [1] (setting [2]); 1.2 µg/mL (≈ 2.51 µM) in the test with HSV- I (HSV- I, Vero cells, ELISA); greater than 10 µg/mL in the test with VZV strain Ellen (setting [5]). Further, the inhibition at 10 µg/mL in the test on VZV strain Ellen (setting [3]) is 22%.
`COc1cc(OC)c(NC(=S)Nc2ccc(NC(=O)c3ccccc3NC(C)=O)cc2)cc1Cl` [Example 189, 2-Acetylamino-N-{4-[3-(5-chloro-2,4-dimethoxy-phenyl)-thioureido]-phenyl}-benzamide]: the IC50 was greater than 10 µg/mL in test [1] (setting [2]); 2.5 µg/mL (≈ 5.01 µM) in the test with HSV- I (HSV- I, Vero cells, ELISA); greater than 10 µg/mL in the test with VZV strain Ellen (setting [5]). Besides, in the test with VZV strain Ellen (setting [3]), the inhibition at 10 µg/mL was 59%.
As for `COc1cc(OC)c(NC(=S)Nc2ccc(NC(=O)c3ccccc3NS(C)(=O)=O)cc2)cc1Cl` [Example 191, N-{4-[3-(5-Chloro-2,4-dimethoxy-phenyl)-thioureido]-phenyl}-2-methane-sulfonylamino-benzamide], the IC50 in test [1] (setting [2]) is greater than 10 µg/mL; in the test on HSV- I (Vero), 8 µg/mL (≈ 15 µM); in the test with VZV strain Ellen (setting [4]) it was greater than 10 µg/mL. Besides, the inhibition at 10 µg/mL in the test on VZV strain Ellen (setting [3]) turned out to be 22%.
As for `COc1cc(OC)c(NC(=S)Nc2ccc(NC(=O)c3ccc(F)c(F)c3F)cc2)cc1Cl` [Example 192, N-{4-[3-(5-Chloro-2,4-dimethoxy-phenyl)-thioureido]-phenyl}-2,3,4-trifluoro-benzamide], the IC50 in test [1] (setting [2]) is greater than 10 µg/mL; with HSV- I (HSV- I, Vero cells, ELISA), 0.5 µg/mL (≈ 1.01 µM); in the test on VZV strain Ellen (setting [5]), greater than 10 µg/mL. Moreover, the inhibition at 10 µg/mL with VZV strain Ellen (setting [3]) was determined as 14%.
Consider `COc1cc(OC)c(NC(=S)Nc2ccc(NC(=O)c3c(F)c(F)c(F)c(F)c3F)cc2)cc1Cl` [Example 193, N-{4-[3-(5-Chloro-2,4-dimethoxy-phenyl)-thioureido]-phenyl}-2,3,4,5,6-pentafluoro-benzamide], for which the IC50 in test [1] (setting [2]) was greater than 10 µg/mL; in the test on HSV- I (HSV- I, Vero cells, ELISA), 1.5 µg/mL (≈ 2.82 µM); with VZV strain Ellen (setting [5]), 3.8 µg/mL (≈ 7.14 µM). Further, the inhibition at 10 µg/mL with VZV strain Ellen (setting [3]) is 106%.

The values are drawn from patent EP1137645B1, “ALPHA-METHYLBENZYL-CONTAINING THIOUREA INHIBITORS OF HERPES VIRUSES CONTAINING A […] GROUP” (Wyeth, priority 1998, dated 2000).
